According to patent publication EP4813979A1, “COMPOUND FOR EGFR PROTEIN DEGRADATION AND USE THEREOF” (TYK Medicines, Inc., priority 2023, dated 2025):
Like-named read-outs stand apart in the source and are kept apart here.

Key:
[1] = Pharmacokinetic tests in male SD rats; format: in vivo; conditions: oral gavage (po), 10 mg/kg, plasma; for AUC(0-inf) / AUC(0-t) / Cmax / MRT last / Tmax: rat
Outline: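 Fasted male SD rats (n=3) dosed 10 mg/kg by oral gavage as 1 mg/mL solution in 10% DMSO/90% 0.5% MC. Tail-vein EDTA plasma sampled 0.5–24 h, parent drug quantified by LC-MS/MS; AUC, T1/2, Cmax, Tmax by non-compartmental analysis.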

[2] = biological target: EGFR in Baf3-L858R-T790M-C797S (Homo sapiens, UniProt P00533, C797S/L858R/T790M); assay: EGFR PROTAC HTRF experiment (total EGFR degradation); format: cell-based
EGFR in Baf3-L858R-T790M-C797S, sequence (P00533 25-1210 T790M/C797S/L858R): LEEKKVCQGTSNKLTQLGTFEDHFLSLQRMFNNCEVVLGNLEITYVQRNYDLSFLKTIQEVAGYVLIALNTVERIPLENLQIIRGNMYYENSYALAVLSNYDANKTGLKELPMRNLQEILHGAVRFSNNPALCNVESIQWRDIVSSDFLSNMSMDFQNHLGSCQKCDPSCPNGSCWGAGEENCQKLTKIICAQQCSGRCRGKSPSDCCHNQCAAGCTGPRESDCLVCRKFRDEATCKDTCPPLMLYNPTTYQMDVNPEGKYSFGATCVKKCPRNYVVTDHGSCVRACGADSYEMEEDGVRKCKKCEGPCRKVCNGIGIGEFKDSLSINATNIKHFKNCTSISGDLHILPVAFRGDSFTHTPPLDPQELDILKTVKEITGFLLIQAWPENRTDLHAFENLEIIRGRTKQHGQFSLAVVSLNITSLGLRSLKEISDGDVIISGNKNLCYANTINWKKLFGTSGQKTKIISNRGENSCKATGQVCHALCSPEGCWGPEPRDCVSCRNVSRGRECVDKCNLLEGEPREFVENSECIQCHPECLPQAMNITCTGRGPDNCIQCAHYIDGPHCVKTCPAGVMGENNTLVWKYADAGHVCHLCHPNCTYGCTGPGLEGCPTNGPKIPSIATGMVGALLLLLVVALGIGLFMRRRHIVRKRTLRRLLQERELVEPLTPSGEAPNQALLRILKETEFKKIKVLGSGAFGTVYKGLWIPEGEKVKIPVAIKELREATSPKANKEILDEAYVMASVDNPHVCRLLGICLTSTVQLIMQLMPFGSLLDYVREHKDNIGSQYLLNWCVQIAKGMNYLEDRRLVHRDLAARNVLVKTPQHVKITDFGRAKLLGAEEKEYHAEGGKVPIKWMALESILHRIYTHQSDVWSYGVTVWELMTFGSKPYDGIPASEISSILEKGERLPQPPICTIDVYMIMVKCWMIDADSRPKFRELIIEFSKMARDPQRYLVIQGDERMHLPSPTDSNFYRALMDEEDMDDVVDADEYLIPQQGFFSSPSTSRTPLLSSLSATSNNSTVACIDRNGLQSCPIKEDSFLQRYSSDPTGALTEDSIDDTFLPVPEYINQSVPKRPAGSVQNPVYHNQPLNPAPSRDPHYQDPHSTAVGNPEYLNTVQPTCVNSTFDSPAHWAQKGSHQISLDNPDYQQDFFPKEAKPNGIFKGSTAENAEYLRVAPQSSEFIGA
Outline: (§1)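 Ba/F3 clones stably expressing EGFR L858R/T790M/C797S or del19/T790M/C797S were treated with compound; total EGFR measured by HTRF with Eu and d2 antibodies. DC50 and Dmax derived from fitted curves.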

[3] = biological target: EGFR in Baf3-19del-T790M-C797S (Homo sapiens, UniProt P00533, C797S/DEL746-750/T790M); assay: as above; format: cell-based
EGFR in Baf3-19del-T790M-C797S, sequence (P00533 with tags, fused parts or gaps DEL746-750/T790M/C797S): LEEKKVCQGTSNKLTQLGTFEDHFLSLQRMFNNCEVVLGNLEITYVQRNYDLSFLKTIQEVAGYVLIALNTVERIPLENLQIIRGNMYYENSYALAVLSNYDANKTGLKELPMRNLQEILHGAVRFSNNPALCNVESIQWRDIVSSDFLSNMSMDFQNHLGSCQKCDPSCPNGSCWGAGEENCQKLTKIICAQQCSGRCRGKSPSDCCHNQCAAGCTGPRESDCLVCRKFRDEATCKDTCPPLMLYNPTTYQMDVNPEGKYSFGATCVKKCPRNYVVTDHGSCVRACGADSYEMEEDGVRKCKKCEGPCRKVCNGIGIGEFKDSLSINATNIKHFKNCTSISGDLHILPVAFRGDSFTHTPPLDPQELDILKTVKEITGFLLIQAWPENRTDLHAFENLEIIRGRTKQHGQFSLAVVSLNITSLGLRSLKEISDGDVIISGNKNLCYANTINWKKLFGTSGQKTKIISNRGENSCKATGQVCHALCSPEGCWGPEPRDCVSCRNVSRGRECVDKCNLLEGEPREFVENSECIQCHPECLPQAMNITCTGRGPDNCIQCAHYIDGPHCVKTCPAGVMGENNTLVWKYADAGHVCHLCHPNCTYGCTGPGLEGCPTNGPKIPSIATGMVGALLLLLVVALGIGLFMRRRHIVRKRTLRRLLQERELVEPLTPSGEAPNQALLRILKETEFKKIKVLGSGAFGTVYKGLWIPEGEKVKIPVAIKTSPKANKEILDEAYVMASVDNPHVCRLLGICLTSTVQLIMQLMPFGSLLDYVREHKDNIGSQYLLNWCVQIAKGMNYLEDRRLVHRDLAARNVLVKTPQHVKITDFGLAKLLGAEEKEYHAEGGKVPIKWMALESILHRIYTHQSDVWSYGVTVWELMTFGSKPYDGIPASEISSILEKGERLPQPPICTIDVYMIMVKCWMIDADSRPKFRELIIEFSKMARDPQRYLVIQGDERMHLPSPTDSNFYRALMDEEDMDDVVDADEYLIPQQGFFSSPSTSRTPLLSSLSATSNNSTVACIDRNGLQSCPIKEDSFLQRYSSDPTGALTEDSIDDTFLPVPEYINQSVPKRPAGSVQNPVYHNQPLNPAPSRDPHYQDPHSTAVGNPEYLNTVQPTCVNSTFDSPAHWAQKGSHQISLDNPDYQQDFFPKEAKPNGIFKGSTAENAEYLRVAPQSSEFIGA
Outline: as §1

[4] = Baf3-LTC, incubated 16 hours, HTRF total EGFR; read-out: Baf3-LTC DC50
[5] = Baf3-LTC, incubated 16 hours, HTRF total EGFR; read-out: Baf3-LTC Dmax
[6] = Baf3-DTC, incubated 16 hours, HTRF total EGFR; read-out: Baf3-DTC DC50
[7] = Baf3-DTC, incubated 16 hours, HTRF total EGFR; read-out: Baf3-DTC Dmax

SMILES	HL [1]	AUC(0-inf) [1]	AUC(0-t) [1]	Cmax [1]	MRT last [1]	Tmax [1]	DC50 [2, 4]	Dmax [2, 5]	DC50 [3, 6]	Dmax [3, 7]	DC50 ([2]; read-out: Baf3-LTC DC50; Baf3-LTC, incubated 16 hours, HTRF total EGFR)	Dmax ([2]; read-out: Baf3-LTC Dmax)	DC50 ([3]; read-out: Baf3-DTC DC50; Baf3-DTC, incubated 16 hours, HTRF total EGFR)	Dmax ([3]; read-out: Baf3-DTC Dmax)
CCc1cc(Nc2ncc(Cl)c(Nc3ccccc3P(C)(C)=O)n2)c(OC)cc1N1CC2(CCN(C(=O)CN3CCC(c4cc5c(cc4F)c(N4CCC(=O)NC4=O)nn5C)C(F)(F)C3)CC2)C1 (centres unmarked) [TA-023]	3.99 h	3980 ng·h/mL	3920 ng·h/mL	580 ng/mL	5.1 h	2 h	0.01 to 0.1 µM	70 to 100%	0.01 to 0.1 µM	70 to 100%	–	–	–	–
CCc1cc(Nc2ncc(Cl)c(Nc3ccccc3C(=O)NC)n2)c(OC)cc1N1CCN(C(=O)CN2CCC(c3cc4c(cc3F)c(N3CCC(=O)NC3=O)nn4C)C(F)(F)C2)CC1 (centres unmarked) [TA-003]	3.22 h	3800 ng·h/mL	3770 ng·h/mL	441 ng/mL	5.63 h	2 h	–	–	–	–	0.01 to 0.1 µM	70 to 100%	0.01 to 0.1 µM	70 to 100%
COc1cc(N2CCC(CN3CCN(c4ccc5c(c4)C(=O)N(C4CCC(=O)NC4=O)C5=O)CC3)CC2)c(-c2cnn(C)c2)cc1Nc1ncc(Br)c(Nc2ccc(C3CC3)cc2P(C)(C)=O)n1 (centres unmarked) [DZL-1, reference compound]	3.08 h	8460 ng·h/mL	8070 ng·h/mL	699 ng/mL	6.11 h	4 h	0.01 to 0.1 µM	70 to 100%	0.01 to 0.1 µM	70 to 100%	–	–	–	–
CCc1cc(Nc2ncc(Cl)c(Nc3ccccc3P(C)(C)=O)n2)c(OC)cc1N1CCN(C(=O)CN2CCC(c3cc4c(cc3F)c(N3CCC(=O)NC3=O)nn4C)CC2)CC1 [TC-213]	3.48 h	8150 ng·h/mL	8070 ng·h/mL	742 ng/mL	6.22 h	4 h	0.01 to 0.1 µM	70 to 100%	0.01 to 0.1 µM	70 to 100%	–	–	–	–
CCc1cc(Nc2ncc(Cl)c(Nc3ccccc3P(C)(C)=O)n2)c(OC)cc1N1CCN(C(=O)CN2CCC(c3cc4c(cc3F)c(N3CCC(=O)NC3=O)nn4C)C(F)(F)C2)CC1 (centres unmarked) [TC-157]	2.66 h	5800 ng·h/mL	7530 ng·h/mL	768 ng/mL	5.52 h	3.33 h	< 0.01 µM	–	< 0.01 µM	–	–	70 to 100%	–	70 to 100%
